# Experimental data as given in patent US10675286B2, “Heterocyclic compounds and uses thereof” (Infinity Pharmaceuticals, Inc., priority 2014, dated 2020).
# Like-named read-outs stand apart in the source and are kept apart here.
# Columns and labels:
# human T cells = test: Concanavalin A-induced model for activation of human T cells (IFN-γ); type: cell-based
# [1] = test system: IL-8 induced neutrophil migration; test: IL-8 driven murine air pouch model; type: in vivo; conditions: mouse; Compound BB 0.1, 0.3, 1, 3 mg/kg; Compound AA 10, 25, about 50 mg/kg; vs vehicle
# Excerpt: IL-8 chemoattracts and activates neutrophils.
# [2] = test system: CXCL12-induced T cell migration; test: CXCL12-induced T-cell migration in CLL PBMCs (transwell); type: cell-based; conditions: Homo sapiens
# Method: Specifically, the material used were media (RPMI+0.5% Fetal Bovine Serum+Pen/Strep), total CLL PBMCs (AllCells), CoStar 24-transwell plates ([…]) #3421, BD Cytofix Fixation Buffer (#554655), BD FBS Stain Buffer (BD Biosciences, 554656), Deep 96-well plate (Axygen, P-2ML-SQ-C), rhCXCL12 (R&D, 350-NS-050), CD-19 APC Cy7 (BD #348794 1:20), CD3-PerCPCy5.5 (BD #560835, 1:20), CD5-PE (Biolegend #300608, 1:5), CD4-FITC (BD #561842, 1:20), and CD8-APC (BD #561953, 1:20).
# Total CLL human PBMCs were preincubated with Compound AA or BB in media for 45 minutes at 37° C. […] After the 45 minutes of compound preincubation, 500-750K CLL PBMCs were placed in the upper chamber of the transwell insert in a total volume of 100 uL. The cells were allowed to migrate for 2-4 hours at 37° C. The inserts were removed, and 550 uL media from lower chamber were transferred into a deep 96-well plate. The cells were spun at 1280 rpm for 5 minutes and flick media. The cells were resuspended in 400 uL BD Cytofixation buffer and incubated at RT for 10 minutes. 1 mL BD FBS stain buffer was added. The cells were spun at 1280 rpm and fixation buffer was disposed. The cells were resuspended in 100 uL of CD3,4,8,5,19 antibody cocktail made up in BD FBS stain buffer, which was then incubated at room temperature in the dark for 30-60 minutes. 1 mL BD FBS stain buffer was added to each well, which was then spun and flicked. The cells were resuspended in 150 uL FBS stain buffer and transferred to FACS tubes already containing 150 uL FBS stain buffer. Each sample was read on the FACS for 25 seconds. Gate on CD3, 4, 8 and CD19/5 subpopulations individually and calculate average migration index from triplicate samples. See e.g., Borge et al., haematologica 2010, 95(5): 768-775; de Rooij et al., Blood 2012, 119: 2590-2594.
# [3] = test system: LPS-induced neutrophil influx into BALF; test: LPS-induced neutrophilia in rats, oral administration; type: in vivo; conditions: rat, p.o., 4 hours post-LPS challenge; dose dependent
# Method: (§1) This study also includes assessment of the exposure to the compounds in plasma and lung tissues.
# (§2) Ref C is budesonide p.o. The compound was administered p.o. and about 1 hour later, LPS was administered intra-tracheally and plasma was collected. After about 5 hours, plasma and bronchoalveolar lavage samples were collected.
# [4] = Oral PK in the rat LPS studies (free plasma concentration); type: in vivo; conditions: for Free Plasma Conc (nM): p.o. 0.2 mg/kg
# Method: as §1, §2
# [5] = test system: CXCL12 induced p-AKT in bone marrow derived macrophages; test: CXCL12-induced p-AKT induction assay in differentiated, polarized macrophages; type: cell-based, mouse
# Excerpt: Long bones from young C57B6 mice were harvested and bone marrow was extruded by gentle lavage of the bone marrow cavities with a 28 gauge needle. Red blood cells were removed using red blood cell lysis buffer (Sigma). Bone marrow cells were differentiated to macrophages using MCSF for 6 days (RPMI and 20% FCS) with one media change (with removal of all non-adherent cells) at day 3. Macrophages were polarized into M0 (MCSF), M1 (MCSF, IFNγ, and LPS for 1 day), or M2 (MCSF, IL4 for 2 days).
# Polarized macrophages were lifted with Acutase, and plated at 0.5M cells per well (0.5 ml) in a deep well (2 ml) non adherant plate in polarization media for 1 hour. […] CXCL12 was added, and the cells were mixed on a plate shaker for 2 minutes. 1 ml of 37 degree FACS Lyse/fix buffer (BD bioscience) was added and the plate was mixed for 1 minute. The plates were spun and decanted and frozen at −80° C. Phospho AKT staining with anti Phospho AKT 473 PERCP labeled (Cell Signaling Technologies) was performed and measured by flow cytometry. Total cell MFI was used to calculate the effect of tested compound on CXCL12 induction of phospho AKT.
# [6] = test system: T cell activation (IFN-γ in response to ConA); test: T cell activation in human whole blood (Con-A, IFN-γ readout); type: cell-based; conditions: 24 hours, read-out: IC50, T cell activation as measured by inhibition of IFN-γ
# Method: The purpose of this study is to evaluate the effect of various antigens (Con-A) in T cell activation in Human Whole Blood vs. 1:1 Diluted Blood using test compounds at 24 hour time-point.
# T-cell Activation Media includes RPMI-1000 ml, MEM NEAA-10 ml, Sodium Pyruvate (100 mM)-10 ml, Pen Strep-10 ml, 2-Mercaptoethanol-1 ml, and FBS-100 ml. 100 ul of whole blood were plated in 96 well plate. Used only the 60 inside wells and filled the outside with media or PBS. Diluted human whole blood with 5% Serum RPMI 1640 1:1 and plate 100 ul in 96 well plate. Used only the 60 inside wells and filled the outside with media or PBS.
# The compound was diluted using DMSO (Sigma hybridmax). For 1000 nM highest concentration starting from a 10 mM stock, added 300 ul of DMSO into deep well plates. To the highest concentration add 10 ul of 10 mM compound stock.
# A media plate was prepared from DMSO plate by taking 100 ul and go into 900 ul media in new deep well plate, taping plate, and putting on mixer for 5 minutes.
# The rested cell plates were removed from incubator. Added 12 uL of diluted compound from media plate (final DMSO is 1%), and incubated for 45 minutes.
# Con-A was prepared as follows: 200 ul stock into 1 ml Media, 100 ul of that into 1 ml Media, 100 ul of that into 1 ml Media. […] This was analyzed after 24 Hours.
# 10× stock in media, added 12 ul per well. […] Analyzed with multiplex elisa from MSD. […]
# [7] = Pharmacokinetics of Compound 88 in female C57 mice, PO; type: in vivo, mouse; conditions: for tlast / AUC: female C57 mice; for AUC: mouse, plasma, read-out: AUC0_INF
# Method: Animals were weighed daily prior to dosing. […] On subsequent dosing days, the animals' condition was noted prior to dosing; the animals were observed within 4 hours of dosing, and at the end of the day.
# Samples were collected at pre-dose 0.25, 0.5, 1, 2, 4, 6 and 24 h following the first dose on day 1 and pre-dose (trough), 0.25, 0.5, 1, 2, 4, 6 and 24 h following the final dose on day 3. Animals received a single oral dose daily for 3 consecutive days. Blood was collected by retro-orbital bleeding for all time points on day 1. All other blood sampling was collected by a cardiac puncture. Blood was collected into K2EDTA tubes and placed on wet ice. Within 15 min of collection, the sample was centrifuged at 10,000 rpm at 4° C. for 10 min in a bench top centrifuge and the plasma transferred to a new microcentrifuge tube.
# A similar study was carried out using Compound 88. […] Below is a table that details the results for Compound 88: […]
# LLC tumor brei = LLC tumor brei model, Compound BB with or without cyclophosphamide; type: in vivo, mouse; conditions: Compound BB 15 mg/kg QD PO, cyclophosphamide 50 mg/kg EOD IP
# Method: In this experiment, treatment began when tumors reached approx. 150 mm^3—around day 12. Caliper and xenogen images were monitored. Treatment groups n=13-15/group. […] Samples for FACs analysis were collected on day 23 post implant. Using FACS, cells were assayed for the level of CD11b and Gr-1.
# PI3K γ = PI3K γ (Homo sapiens (Human), UniProt P48736); test: PI3-Kinase Promega ADP-Glo Max assay, γ isoform; type: biochemical
# Sequence of PI3K γ (P48736 whole entry, canonical isoform): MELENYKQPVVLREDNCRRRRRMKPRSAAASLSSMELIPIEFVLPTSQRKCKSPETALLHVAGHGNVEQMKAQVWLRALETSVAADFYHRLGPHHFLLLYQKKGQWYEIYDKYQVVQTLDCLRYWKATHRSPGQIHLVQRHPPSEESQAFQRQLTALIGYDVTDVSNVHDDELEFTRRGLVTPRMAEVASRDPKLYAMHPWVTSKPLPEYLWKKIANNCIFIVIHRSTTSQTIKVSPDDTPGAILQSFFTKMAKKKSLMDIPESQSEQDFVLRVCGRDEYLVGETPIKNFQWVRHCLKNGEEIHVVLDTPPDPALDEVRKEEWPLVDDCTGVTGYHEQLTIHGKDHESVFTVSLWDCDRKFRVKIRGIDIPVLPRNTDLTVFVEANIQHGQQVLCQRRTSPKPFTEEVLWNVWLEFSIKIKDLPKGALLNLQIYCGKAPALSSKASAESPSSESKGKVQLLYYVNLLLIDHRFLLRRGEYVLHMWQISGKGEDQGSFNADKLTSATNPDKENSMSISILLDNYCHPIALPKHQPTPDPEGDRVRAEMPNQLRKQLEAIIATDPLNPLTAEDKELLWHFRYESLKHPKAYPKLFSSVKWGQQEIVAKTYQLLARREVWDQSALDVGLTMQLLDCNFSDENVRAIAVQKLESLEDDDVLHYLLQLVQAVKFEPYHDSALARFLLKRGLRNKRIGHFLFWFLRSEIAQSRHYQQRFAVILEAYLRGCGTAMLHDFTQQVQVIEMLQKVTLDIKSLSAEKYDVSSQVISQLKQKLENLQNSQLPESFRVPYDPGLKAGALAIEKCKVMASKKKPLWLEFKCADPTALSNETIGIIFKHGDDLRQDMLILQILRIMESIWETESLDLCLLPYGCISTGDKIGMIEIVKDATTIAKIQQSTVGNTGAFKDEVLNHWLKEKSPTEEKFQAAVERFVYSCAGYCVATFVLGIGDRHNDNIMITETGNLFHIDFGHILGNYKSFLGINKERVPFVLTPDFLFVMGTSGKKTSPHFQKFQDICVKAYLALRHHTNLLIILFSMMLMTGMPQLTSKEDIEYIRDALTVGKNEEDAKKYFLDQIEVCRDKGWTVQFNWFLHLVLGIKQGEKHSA
# Method: Promega ADP-Glo Max assay kit (Cat. No. V7002) was utilized to determine IC50 values for α, β, δ and γ isoforms of human Class I PI3 kinases (Millipore). […] Reactions were incubated at room temperature for 2 hours followed by addition of 25 uL of stop solution. After a 40-minute incubation at room temperature, 50 uL of Promega detection mix was added followed by incubation for 1 hour at room temperature. Plates were then read on Envision plate reader in luminescence mode. Data was converted to % inhibition using the following equation below:
# [formula] where S is the sample luminescence, Pos is a positive control without added PI3K, Neg is the negative control without added compound. Data was then plotted as % inhibition vs compound concentration.
# PI3K-δ = PI3K-δ (Homo sapiens (Human), UniProt O00329); test: RAJI p110 δ assay (phospho-AKT in anti-human IgM stimulated RAJI cells); type: cell-based
# Sequence of PI3K-δ (O00329 whole entry): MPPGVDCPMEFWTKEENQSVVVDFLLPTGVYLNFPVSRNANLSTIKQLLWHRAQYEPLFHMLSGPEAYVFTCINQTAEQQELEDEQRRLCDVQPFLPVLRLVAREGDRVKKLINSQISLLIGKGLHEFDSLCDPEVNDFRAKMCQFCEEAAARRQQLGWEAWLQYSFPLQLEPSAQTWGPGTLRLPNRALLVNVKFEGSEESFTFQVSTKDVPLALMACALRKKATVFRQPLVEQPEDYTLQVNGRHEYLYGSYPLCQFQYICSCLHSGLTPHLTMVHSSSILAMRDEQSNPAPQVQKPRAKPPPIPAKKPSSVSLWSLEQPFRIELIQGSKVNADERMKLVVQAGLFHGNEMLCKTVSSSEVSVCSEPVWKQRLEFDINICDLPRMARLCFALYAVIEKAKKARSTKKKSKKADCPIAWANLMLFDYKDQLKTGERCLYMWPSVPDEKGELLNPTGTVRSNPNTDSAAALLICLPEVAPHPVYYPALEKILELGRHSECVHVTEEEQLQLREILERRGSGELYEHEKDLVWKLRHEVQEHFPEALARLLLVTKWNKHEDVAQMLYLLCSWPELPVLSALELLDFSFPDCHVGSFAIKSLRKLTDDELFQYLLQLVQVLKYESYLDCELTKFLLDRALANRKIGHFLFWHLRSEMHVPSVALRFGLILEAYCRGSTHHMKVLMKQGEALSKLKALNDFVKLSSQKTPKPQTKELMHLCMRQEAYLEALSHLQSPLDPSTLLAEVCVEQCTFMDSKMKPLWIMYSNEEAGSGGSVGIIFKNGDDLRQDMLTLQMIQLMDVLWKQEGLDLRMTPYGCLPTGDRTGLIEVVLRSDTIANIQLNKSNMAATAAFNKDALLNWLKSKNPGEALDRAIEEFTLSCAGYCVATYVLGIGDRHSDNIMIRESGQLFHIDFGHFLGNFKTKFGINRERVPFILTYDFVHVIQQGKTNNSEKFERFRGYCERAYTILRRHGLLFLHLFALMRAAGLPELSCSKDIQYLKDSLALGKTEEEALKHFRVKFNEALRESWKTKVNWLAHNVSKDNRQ
# Sequence of PI3K-δ (P27986 whole entry partner): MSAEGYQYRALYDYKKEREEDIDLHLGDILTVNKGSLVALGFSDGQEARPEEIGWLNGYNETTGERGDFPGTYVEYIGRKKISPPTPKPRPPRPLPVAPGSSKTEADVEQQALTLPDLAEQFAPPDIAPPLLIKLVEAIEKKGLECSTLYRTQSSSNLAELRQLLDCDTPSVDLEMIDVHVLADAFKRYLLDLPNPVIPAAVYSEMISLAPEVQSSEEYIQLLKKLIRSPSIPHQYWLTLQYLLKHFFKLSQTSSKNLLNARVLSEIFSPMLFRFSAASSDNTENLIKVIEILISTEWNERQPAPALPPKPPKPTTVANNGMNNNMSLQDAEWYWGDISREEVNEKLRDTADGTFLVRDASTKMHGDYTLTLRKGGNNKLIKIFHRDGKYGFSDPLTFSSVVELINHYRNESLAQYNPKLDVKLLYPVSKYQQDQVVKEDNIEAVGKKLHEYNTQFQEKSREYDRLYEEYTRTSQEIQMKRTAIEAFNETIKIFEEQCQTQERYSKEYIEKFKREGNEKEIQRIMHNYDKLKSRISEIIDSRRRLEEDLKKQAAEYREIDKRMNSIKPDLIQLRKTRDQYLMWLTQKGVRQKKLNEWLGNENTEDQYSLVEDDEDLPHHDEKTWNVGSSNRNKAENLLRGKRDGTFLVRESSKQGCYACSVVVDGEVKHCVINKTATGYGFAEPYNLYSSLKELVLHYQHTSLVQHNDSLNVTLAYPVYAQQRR
# Method: Reduction of phospho-AKT is indicative of compounds that may inhibit B-cell proliferation and function in certain diseases.
# Certain compounds provided herein were tested in RAJI cell model using procedures as described above.
# PI3K-γ = PI3K-γ (Mus musculus (Mouse), UniProt Q9JHG7); test: Raw264.7 p110 γ assay (C5a-mediated phospho-AKT in RAW264.7 macrophages); type: cell-based
# Sequence of PI3K-γ (Q9JHG7 whole entry): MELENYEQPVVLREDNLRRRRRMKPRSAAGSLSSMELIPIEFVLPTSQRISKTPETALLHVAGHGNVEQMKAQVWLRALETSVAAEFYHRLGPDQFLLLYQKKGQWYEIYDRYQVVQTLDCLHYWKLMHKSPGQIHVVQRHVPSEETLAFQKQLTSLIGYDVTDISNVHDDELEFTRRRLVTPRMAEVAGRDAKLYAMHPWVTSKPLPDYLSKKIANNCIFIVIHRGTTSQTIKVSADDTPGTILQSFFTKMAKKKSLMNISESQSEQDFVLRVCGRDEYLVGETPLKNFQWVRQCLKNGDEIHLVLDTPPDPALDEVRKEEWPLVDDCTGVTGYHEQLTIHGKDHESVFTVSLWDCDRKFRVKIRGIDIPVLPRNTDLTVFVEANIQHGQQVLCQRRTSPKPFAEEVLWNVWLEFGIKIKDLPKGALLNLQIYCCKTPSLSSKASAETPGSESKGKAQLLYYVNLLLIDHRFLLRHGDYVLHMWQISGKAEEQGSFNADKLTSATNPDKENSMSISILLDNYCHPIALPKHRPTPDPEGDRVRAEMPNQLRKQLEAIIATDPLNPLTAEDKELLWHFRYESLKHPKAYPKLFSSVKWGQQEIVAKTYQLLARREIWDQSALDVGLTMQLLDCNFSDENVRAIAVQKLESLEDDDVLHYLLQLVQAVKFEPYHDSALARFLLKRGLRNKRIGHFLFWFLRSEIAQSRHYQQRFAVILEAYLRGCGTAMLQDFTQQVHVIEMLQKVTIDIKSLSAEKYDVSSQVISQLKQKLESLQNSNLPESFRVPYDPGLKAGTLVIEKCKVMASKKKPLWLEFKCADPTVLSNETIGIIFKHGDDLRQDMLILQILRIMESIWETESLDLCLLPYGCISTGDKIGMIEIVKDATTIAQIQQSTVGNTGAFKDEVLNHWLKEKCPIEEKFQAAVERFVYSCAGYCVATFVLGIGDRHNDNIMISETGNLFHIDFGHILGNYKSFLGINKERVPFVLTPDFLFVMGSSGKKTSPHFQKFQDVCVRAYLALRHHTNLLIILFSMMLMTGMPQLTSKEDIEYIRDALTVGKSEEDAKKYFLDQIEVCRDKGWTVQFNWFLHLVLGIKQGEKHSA
# Excerpt: Briefly, serum-starved RAW264.7 cells are stimulated with a known GPCR agonist C5a. […] Cells can be treated with test compounds prior to, simultaneously with, or subsequent to the stimulation by C5a. RAW 264.7 cells respond to the complement component fragment C5a through activation of the C5a receptor, and the C5a receptor activates macrophages and induces cell migration.
# [8] = test system: haematological malignancies; conditions: cited from earlier work
smiles,measurement,setting,value
"CC(C)n1c([C@H](C)Nc2ncnc(N)c2C#N)cc2cccc(-c3ccc(=O)n(C)c3)c2c1=O [Compound AA, reference compound]",inhibition of IFN-γ,human T cells,highly selective inhibitor
same,IL-8 induced neutrophil migration into air pouch,[1],does not inhibit IL-8 induced neutrophil migration
same,EC50,"[2]; T-cell subset CD3+, read-out: EC50 (nM), CXCL12 induced T-cell migration",630 ± 71 nM
same,EC50,"[2]; T-cell subset CD4+, read-out: EC50 (nM), CXCL12 induced T-cell migration",726 ± 230 nM
same,EC50,"[2]; T-cell subset CD8+, read-out: EC50 (nM), CXCL12 induced T-cell migration",423 ± 290 nM
same,EC50,"[2]; read-out: EC50, inhibition of CXCL12-induced CD3+ T cell migration (FIG. 8)",694 nM
same,Neutrophil in bronchoalveolar lavage fluid (BALF),[3],reduced neutrophil in bronchoalveolar lavage fluid (BALF)
same,Free plasma levels relative to IC90 of the target isoform,"[4]; highest dose levels, gamma for Compound BB, delta for Compound AA",equal or greater than the IC90
same,Free Plasma Conc (nM),[4]; 1.5 h (time of LPS challenge),BLQ
same,Free Plasma Conc (nM),[4]; […] (about 4 hours post LPS challenge),BLQ
same,"IC50, CXCL12 induced p-AKT",[5]; differentiated and M1 polarized macrophage,did not significantly inhibit
same,"IC50, CXCL12 induced p-AKT",[5]; differentiated and M2 polarized macrophage,did not significantly inhibit
same,IC50,[6],3 nM
"Cc1c(C#Cc2cccc3nc([C@H](C)NC(=O)c4c(N)nn5cccnc45)n(-c4ccccc4)c(=O)c23)cnn1C [Compound 88, (S)-2-amino-N-(1-(5-((1,5-dimethyl-1H-pyrazol-4-yl)ethynyl)-4-oxo-3-phenyl-3,4-dihydroquinazolin-2-yl)ethyl)pyrazolo[1,5-a]pyrimidine-3-carboxamide]",tlast,[7]; 2 mg/kg PO NMP,8 h
same,tlast,[7]; 7.5 mg/kg PO NMP,24 h
same,tlast,[7]; 15 mg/kg PO NMP,24 h
same,Stability in serum,"[7]; female C57 mice, 2, 7.5 or 15 mg/kg PO",good stability in serum
same,AUC,[7]; 7.5 mg/kg PO NMP,20700 ng·h/mL
same,AUC,[7]; 15 mg/kg PO NMP,81200 ng·h/mL
"O=P1(N(CCCl)CCCl)NCCCO1 (centres unmarked) [cyclophosphamide, reference compound]",Tumor growth (FIG. 48),LLC tumor brei,reduced tumor growth by about the same amount
C[C@H](NC(=O)c1c(N)nn2cccnc12)c1cc2cccc(C#Cc3ccn[nH]3)c2c(=O)n1-c1ccccc1 [Compound 43],PI3K δ/PI3K γ IC50 (selectivity),PI3K γ,Y (Y = 50 to <850)
same,IC50,PI3K-δ,100 to 500 nM
same,RAJI δ/Raw264.7 γ IC50 (selectivity),PI3K-γ,X (X = 10 to <50)
same,IC50,PI3K-γ; phospho-AKT,1 to 50 nM
CC[C@H](Nc1ncnc2[nH]cnc12)c1nc2cccc(F)c2c(=O)n1-c1ccccc1 [CAL-101],clinical activity in CLL,"[8]; phase 1 trial, patients with poor prognostic characteristics",showed activity
same,clinical activity in mantle cell lymphoma and refractory non Hodgkin's lymphoma,[8]; single agent,active
